Test results from PMC3478282, “Probing the Putative Active Site of YjdL: An Unusual Proton-Coupled Oligopeptide Transporter from E. coli” (PLoS ONE, 2012).
Changes are numbered by the printed parent chain. Residues, ends and D or L forms follow the SMILES beside them.

Experiments:
Format in all cases: cell-based, E. coli
YjdL Tyr58Phe = target: T1, YjdL Tyr58Phe (Escherichia coli, UniProt P39276, Y58F); assay: β-Ala-Lys(AMCA) uptake and inhibition assay, YjdL Tyr58Phe; conditions: for IC50: 0.5 mM β-Ala-Lys(AMCA), 15 min incubation, pH 6.5, ±SEM, n≥3, read-out: IC50 (inhibition of β-Ala-Lys(AMCA) uptake), Tyr58Phe b
T1 construct: expressed in transfected cells; host or cells: E. coli BL21(DE3)pLysS, pTTQ18-yjdL mutant (QuikChange)
T1 sequence (P39276 1-485 Y58F): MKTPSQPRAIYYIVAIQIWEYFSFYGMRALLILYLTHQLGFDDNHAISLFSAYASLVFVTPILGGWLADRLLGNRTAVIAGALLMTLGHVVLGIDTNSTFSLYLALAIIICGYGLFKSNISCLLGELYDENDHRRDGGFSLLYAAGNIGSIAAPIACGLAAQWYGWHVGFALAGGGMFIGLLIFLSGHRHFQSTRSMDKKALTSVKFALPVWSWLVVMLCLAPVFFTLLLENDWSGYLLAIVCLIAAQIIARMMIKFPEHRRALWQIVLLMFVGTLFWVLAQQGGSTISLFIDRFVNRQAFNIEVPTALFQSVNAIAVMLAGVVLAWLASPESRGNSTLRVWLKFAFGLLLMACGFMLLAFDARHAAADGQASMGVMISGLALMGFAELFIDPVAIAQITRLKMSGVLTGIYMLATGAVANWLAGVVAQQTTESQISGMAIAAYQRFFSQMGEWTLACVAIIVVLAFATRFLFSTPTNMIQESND
Experimental: (§1) Plasmids were transformed into E. coli BL21(DE3)pLysS cells by heat shock and transformants were selected on agar plates containing 100 µg/mL ampicillin and 34 µg/mL chloramphenicol. Single transformants were inoculated into 2 mL LB-media with antibiotics as above and grown overnight. The cultures were diluted 1∶50 in 5 mL LB-media with antibiotics as above, and at an OD600 of 0.5–0.8 protein expression was induced by the addition of 1 mM isopropyl β-D-1-thiogalactopyranoside (IPTG). The cells were harvested after three hours of induction by centrifugation and resuspended in uptake buffer (50 mM MES pH 6.5, 140 mM NaCl, 5.4 mM KCl, 1.8 mM CaCl2, 0.8 mM MgSO4, and 5 mM glucose).
(§2) Uptake assays were performed as previously described, [20]. In a final assay volume of 100 µL; 0.2 mM β-Ala-Lys-N-7-amino-4-methylcoumarin-3-acetic acid (β-Ala-Lys(AMCA), Biotrend) (10 µL) and various concentrations of ligands (purchased from Bachem or Sigma-Aldrich) or uptake buffer (50 µL) were incubated with bacterial cell suspension (OD600 = 10, 40 µL) at 37°C. After 5 min, the uptake was stopped by addition of 500 µL ice-cold uptake buffer followed by immediate centrifugation and washing twice in ice-cold uptake buffer. Finally the cell pellet was resuspended in 100 µL uptake buffer, and the uptake was quantified by fluorescence measurements (excitation at 340 nm and emission at 460 nm) on a Safire 2 fluorimeter. Non-specific uptake was measured as described above on IPTG-induced E. coli BL21(DE3)pLysS cells harboring the empty pTTQ18 vector. All uptake assay experiments were reproduced at least three times independently and data analyses were performed using GraphPad Prism ver. 5.

YjdL Trp278Phe = target: T2, YjdL Trp278Phe (Escherichia coli, UniProt P39276, W278F); assay: β-Ala-Lys(AMCA) uptake and inhibition assay, YjdL Trp278Phe; conditions: 0.2 mM β-Ala-Lys(AMCA), 5 min incubation, pH 6.5; ±SEM, n≥3
T2 construct: host or cells: E. coli BL21(DE3)pLysS
T2 sequence (P39276 1-485 W278F): T1 sequence (P39276 1-485 Y58F) with F58Y, W278F
Experimental: as §1, §2

WT-YjdL = target: T3, WT-YjdL (Escherichia coli, UniProt P39276); assay: cell-based; conditions: for IC50: IC50 (inhibition of β-Ala-Lys(AMCA) uptake)
T3 construct: expressed in transfected cells; host or cells: E. coli BL21(DE3)pLysS, pTTQ18-yjdL, IPTG-induced
T3 sequence (P39276 1-485): T1 sequence (P39276 1-485 Y58F) with F58Y
Experimental: as §1, with “The cells were harvested after three hours of induction by centrifugation and resuspended in uptake buffer (50 mM MES pH 6.5, 140 mM NaCl, 5.4 mM KCl, 1.8 mM CaCl2, 0.8 mM MgSO4, and 5 mM glucose).” left out
as §2

Compound: C[C@H](NC(=O)[C@@H](N)Cc1ccc(O)cc1)C(=O)O [Tyr-Ala]
- IC50 (YjdL Tyr58Phe): 24100 ± 2800 µM
- IC50 (YjdL Trp278Phe): 2800 ± 400 µM
- IC50 at pH 6.5 (50 mM MES) relative to previous studies at pH 7.4 (25 mM Tris/HEPES), WT-YjdL (WT-YjdL): same
- IC50 (WT-YjdL; WT-YjdL a): 2400 ± 400 µM
- IC50 (WT-YjdL; WT-YjdL b): 2400 ± 200 µM

Compound: β-Ala-Lys-N-7-amino-4-methylcoumarin-3-acetic acid [β-Ala-Lys(AMCA)]
- β-Ala-Lys(AMCA) uptake level, YjdL Tyr58Phe (YjdL Tyr58Phe; 0.2 mM, 5 min, pH 6.5 (Figure 3)): 7%
- Kt (WT-YjdL; WT YjdL, data not shown): ~5 mM

Compound: C[C@H](N)C(=O)N[C@@H](C)C(=O)O [Ala-Ala] (H-Ala-Ala-OH)
- IC50 (YjdL Tyr58Phe): 28100 ± 5000 µM
- IC50 (YjdL Trp278Phe): 9900 ± 1000 µM
- IC50 at pH 6.5 (50 mM MES) relative to previous studies at pH 7.4 (25 mM Tris/HEPES), WT-YjdL (WT-YjdL): eight
- IC50 (WT-YjdL; WT-YjdL a): 2800 ± 600 µM
- IC50 (WT-YjdL; WT-YjdL b): 2200 ± 100 µM

Compound: C[C@H](N)C(=O)N[C@@H](CCCCN)C(=O)O [Ala-Lys] (H-Ala-Lys-OH)
- IC50 (YjdL Tyr58Phe): > 50000 µM
- IC50 (YjdL Trp278Phe): 380 µM
- IC50 (WT-YjdL; WT-YjdL a): 280 ± 10 µM
- IC50 (WT-YjdL; WT-YjdL b): 890 ± 160 µM
